Assay results taken from ChEMBL document CHEMBL5303765, “Data for DCP probe BAY-7081” (2023).

How the values were obtained:
[1] = target: T1, D(4) dopamine receptor (Homo sapiens) (UniProt P21917); settings: Compound concentration 10.0 uM
T1 sequence (whole entry): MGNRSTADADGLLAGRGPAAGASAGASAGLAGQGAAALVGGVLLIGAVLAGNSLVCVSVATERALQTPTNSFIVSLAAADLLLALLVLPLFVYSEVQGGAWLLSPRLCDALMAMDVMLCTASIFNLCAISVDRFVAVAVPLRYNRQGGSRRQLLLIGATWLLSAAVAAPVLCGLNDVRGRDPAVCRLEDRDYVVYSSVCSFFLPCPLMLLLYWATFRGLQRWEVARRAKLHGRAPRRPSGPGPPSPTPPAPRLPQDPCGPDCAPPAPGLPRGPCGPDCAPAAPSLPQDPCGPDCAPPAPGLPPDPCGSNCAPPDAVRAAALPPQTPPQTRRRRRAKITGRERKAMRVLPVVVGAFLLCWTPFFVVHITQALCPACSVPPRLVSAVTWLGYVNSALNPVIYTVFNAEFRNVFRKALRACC

[2] = target: Fibroblast growth factor receptor 1 (Homo sapiens) (UniProt P11362); assay: FGFR1 SGC Tm panel (DSF); settings: for ΔTm: Compound concentration 10.0 uM
[3] = target: T2, Serine/threonine-protein kinase haspin (Homo sapiens) (UniProt Q8TF76); assay: GSG2 SGC Tm panel (DSF); settings: for ΔTm: Compound concentration 10.0 uM
T2 sequence (whole entry): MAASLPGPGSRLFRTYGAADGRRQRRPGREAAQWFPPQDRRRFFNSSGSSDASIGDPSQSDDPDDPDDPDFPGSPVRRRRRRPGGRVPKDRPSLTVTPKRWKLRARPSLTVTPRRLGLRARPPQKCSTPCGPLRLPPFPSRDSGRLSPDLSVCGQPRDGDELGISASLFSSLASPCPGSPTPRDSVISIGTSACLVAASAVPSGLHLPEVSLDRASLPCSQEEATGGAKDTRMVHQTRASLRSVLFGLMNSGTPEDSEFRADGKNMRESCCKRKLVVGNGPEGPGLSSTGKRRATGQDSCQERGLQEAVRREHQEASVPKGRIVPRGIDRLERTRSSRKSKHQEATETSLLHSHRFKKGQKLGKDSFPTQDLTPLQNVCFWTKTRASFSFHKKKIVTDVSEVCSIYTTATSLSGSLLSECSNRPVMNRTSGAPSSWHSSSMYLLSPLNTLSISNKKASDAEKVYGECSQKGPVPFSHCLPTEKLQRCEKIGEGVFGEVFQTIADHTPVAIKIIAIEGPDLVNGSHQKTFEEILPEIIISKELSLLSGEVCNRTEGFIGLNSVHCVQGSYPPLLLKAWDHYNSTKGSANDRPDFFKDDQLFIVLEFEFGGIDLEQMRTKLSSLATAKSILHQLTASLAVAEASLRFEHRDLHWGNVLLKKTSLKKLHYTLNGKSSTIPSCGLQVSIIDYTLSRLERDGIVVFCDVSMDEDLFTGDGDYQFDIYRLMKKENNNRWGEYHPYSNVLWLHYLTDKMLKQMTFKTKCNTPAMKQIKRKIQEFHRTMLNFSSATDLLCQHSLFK

[4] = target: T3, Serine/threonine-protein kinase Nek1 (Homo sapiens) (UniProt Q96PY6); assay: NEK1 SGC Tm panel (DSF); settings: for ΔTm: Compound concentration 10.0 uM
T3 sequence (whole entry): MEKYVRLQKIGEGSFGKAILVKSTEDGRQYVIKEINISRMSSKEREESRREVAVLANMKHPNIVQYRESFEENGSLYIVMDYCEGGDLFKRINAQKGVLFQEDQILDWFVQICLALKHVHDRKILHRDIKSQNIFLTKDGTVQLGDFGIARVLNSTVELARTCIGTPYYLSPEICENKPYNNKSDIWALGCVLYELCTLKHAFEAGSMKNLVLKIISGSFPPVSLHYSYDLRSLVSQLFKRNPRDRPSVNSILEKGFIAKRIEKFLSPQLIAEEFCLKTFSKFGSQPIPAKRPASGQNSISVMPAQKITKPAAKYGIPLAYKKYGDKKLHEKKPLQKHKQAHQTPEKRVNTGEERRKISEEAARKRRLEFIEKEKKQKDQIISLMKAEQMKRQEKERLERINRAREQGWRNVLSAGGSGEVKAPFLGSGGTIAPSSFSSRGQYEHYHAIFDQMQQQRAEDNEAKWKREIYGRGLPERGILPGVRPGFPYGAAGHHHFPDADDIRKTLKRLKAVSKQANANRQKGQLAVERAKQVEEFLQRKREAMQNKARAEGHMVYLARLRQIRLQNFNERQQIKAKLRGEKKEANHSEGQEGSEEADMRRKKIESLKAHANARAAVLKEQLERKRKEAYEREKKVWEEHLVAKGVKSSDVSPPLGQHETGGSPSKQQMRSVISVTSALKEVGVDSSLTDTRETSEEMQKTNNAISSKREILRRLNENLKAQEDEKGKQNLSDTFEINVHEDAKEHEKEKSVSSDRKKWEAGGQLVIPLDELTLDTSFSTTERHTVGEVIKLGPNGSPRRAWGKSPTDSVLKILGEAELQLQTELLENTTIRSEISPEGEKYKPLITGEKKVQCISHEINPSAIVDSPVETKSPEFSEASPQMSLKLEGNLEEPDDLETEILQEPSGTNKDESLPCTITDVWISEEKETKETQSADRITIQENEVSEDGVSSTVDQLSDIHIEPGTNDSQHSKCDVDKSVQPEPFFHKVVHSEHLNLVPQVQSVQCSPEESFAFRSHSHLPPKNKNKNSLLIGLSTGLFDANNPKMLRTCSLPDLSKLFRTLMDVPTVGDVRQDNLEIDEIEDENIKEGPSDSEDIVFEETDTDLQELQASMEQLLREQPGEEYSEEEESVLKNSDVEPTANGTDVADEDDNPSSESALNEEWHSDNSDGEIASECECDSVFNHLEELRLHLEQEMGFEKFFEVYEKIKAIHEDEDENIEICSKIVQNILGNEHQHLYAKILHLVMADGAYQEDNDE

[5] = target: Calcium/calmodulin-dependent protein kinase type II subunit delta (Homo sapiens) (UniProt Q13557); assay: CAMK2D SGC Tm panel (DSF); settings: for ΔTm: Compound concentration 10.0 uM
[6] = target: Beta-3 adrenergic receptor (Homo sapiens) (UniProt P13945); settings: Compound concentration 10.0 uM
[7] = target: Serine/threonine-protein kinase 26 (Homo sapiens) (UniProt Q9P289); assay: MST4 SGC Tm panel (DSF); settings: for ΔTm: Compound concentration 10.0 uM
Serine/threonine-protein kinase 26 (Homo sapiens), sequence (Q9P289 2-416 limits assumed): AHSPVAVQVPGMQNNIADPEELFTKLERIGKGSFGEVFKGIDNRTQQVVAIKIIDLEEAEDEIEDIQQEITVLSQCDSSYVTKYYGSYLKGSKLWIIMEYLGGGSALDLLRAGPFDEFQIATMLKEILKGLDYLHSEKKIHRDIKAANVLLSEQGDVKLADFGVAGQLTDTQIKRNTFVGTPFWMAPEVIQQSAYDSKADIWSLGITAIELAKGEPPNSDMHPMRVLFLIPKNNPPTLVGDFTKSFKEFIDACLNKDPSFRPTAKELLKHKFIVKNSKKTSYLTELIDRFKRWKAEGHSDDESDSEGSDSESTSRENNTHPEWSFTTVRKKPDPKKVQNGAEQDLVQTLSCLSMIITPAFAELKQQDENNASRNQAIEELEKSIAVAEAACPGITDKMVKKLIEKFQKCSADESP

Calcium/calmodulin-dependent protein kinase type II subunit delta (Homo sapiens), sequence (Q13557 whole entry): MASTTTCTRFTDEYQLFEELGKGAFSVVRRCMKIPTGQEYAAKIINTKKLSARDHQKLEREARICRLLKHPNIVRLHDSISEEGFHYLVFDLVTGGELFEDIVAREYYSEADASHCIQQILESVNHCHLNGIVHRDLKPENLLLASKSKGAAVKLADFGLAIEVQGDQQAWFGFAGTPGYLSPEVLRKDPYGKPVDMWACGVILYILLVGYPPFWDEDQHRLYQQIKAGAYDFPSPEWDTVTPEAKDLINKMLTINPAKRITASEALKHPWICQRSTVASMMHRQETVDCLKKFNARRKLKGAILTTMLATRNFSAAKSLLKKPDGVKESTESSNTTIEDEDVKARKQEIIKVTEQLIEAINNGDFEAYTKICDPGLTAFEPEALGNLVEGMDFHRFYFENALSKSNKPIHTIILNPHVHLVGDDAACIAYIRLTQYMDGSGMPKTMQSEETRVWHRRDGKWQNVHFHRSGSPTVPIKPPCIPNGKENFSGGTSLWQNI
Fibroblast growth factor receptor 1 (Homo sapiens), sequence (P11362 22-822 limits assumed): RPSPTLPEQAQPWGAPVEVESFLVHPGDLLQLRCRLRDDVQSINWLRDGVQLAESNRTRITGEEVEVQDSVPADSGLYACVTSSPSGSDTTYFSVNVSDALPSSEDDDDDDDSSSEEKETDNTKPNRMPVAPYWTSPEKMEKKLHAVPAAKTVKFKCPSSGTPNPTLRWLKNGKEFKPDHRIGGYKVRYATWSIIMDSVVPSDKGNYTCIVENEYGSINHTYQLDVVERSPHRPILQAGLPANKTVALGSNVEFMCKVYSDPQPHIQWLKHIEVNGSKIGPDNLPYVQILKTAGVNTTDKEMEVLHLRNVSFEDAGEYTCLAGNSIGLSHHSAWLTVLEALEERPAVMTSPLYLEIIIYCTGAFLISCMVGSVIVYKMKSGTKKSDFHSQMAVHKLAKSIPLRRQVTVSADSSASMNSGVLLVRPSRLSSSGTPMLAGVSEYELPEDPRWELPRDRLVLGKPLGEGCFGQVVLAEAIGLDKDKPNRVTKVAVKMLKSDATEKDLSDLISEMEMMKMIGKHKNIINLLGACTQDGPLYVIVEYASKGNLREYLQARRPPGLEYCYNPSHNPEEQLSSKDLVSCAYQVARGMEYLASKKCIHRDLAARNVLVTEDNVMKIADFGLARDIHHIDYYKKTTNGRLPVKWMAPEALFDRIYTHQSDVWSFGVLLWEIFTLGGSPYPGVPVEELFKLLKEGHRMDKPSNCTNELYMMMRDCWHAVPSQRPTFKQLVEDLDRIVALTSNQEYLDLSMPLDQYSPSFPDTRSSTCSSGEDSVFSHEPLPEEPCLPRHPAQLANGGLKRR
Beta-3 adrenergic receptor (Homo sapiens), sequence (P13945 whole entry, looked up): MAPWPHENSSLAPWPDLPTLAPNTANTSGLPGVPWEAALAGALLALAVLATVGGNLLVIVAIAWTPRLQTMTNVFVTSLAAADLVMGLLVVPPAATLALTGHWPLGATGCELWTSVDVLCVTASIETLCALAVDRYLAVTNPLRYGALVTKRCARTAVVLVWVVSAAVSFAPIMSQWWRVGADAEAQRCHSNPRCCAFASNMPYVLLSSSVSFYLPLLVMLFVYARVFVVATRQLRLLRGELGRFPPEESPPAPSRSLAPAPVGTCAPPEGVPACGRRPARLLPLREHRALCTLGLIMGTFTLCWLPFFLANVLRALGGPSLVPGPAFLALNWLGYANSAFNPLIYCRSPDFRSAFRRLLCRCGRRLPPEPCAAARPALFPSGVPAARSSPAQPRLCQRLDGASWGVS

Q: CCC[C@@H]1CNCc2c1[nH]c(=O)c(C#N)c2N1CCC2(CC1)CC2 was tested. Which inhibition [1] did it give?
A: The inhibition was 18.8%.

Q: What about the delta Tm Staurosporine positive control [2] of the same compound?
A: Its delta Tm Staurosporine positive control is 5.57.

Q: And the ΔTm [2]?
A: The ΔTm was -0.198.

Q: What about the delta Tm Staurosporine positive control [3] of the same compound?
A: The delta Tm Staurosporine positive control was 8.53.

Q: And the ΔTm [3]?
A: Its ΔTm is -0.64.

Q: What about the delta Tm Staurosporine positive control [4] of the same compound?
A: Its delta Tm Staurosporine positive control is 2.43.

Q: What about the ΔTm [4] of the same compound?
A: Its ΔTm is 0.25.

Q: What about the delta Tm Staurosporine positive control [5] of the same compound?
A: The delta Tm Staurosporine positive control was 18.2.

Q: And the ΔTm [5]?
A: The ΔTm was -0.155.

Q: What about the inhibition [6] of the same compound?
A: The inhibition was -3.17%.

Q: And the delta Tm Staurosporine positive control [7]?
A: Its delta Tm Staurosporine positive control is 6.5.

Q: And the ΔTm [7]?
A: Its ΔTm is -1.81.

Q: CCC[C@H]1CNCc2c1[nH]c(=O)c(C#N)c2N1CCC2(CC1)CC2 was tested. Which inhibition [1] did it give?
A: The inhibition was 15.9%.

Q: And the delta Tm Staurosporine positive control [2]?
A: The delta Tm Staurosporine positive control was 5.57.

Q: What about the ΔTm [2] of the same compound?
A: Its ΔTm is -0.133.

Q: And the delta Tm Staurosporine positive control [3]?
A: Its delta Tm Staurosporine positive control is 8.53.

Q: What about the ΔTm [3] of the same compound?
A: The ΔTm was -0.0501.

Q: What about the delta Tm Staurosporine positive control [4] of the same compound?
A: Its delta Tm Staurosporine positive control is 2.43.

Q: What about the ΔTm [4] of the same compound?
A: The ΔTm was 0.404.

Q: What about the delta Tm Staurosporine positive control [5] of the same compound?
A: Its delta Tm Staurosporine positive control is 18.2.

Q: What about the ΔTm [5] of the same compound?
A: The ΔTm was 0.118.

Q: What about the inhibition [6] of the same compound?
A: Its inhibition is 3.76%.

Q: What about the delta Tm Staurosporine positive control [7] of the same compound?
A: The delta Tm Staurosporine positive control was 6.5.

Q: And the ΔTm [7]?
A: The ΔTm was -1.58.
